Measured values reported in US8916702B2 (priority 2012, dated 2014).

The compounds below were run on HCV pseudoparticles (genotype 1a HCV E1 and E2 envelope, H77C isolate) (assay: microbe, parasite or virus in culture). Conditions: Hepatitis C virus, Huh-7, 48 h, HCV pseudoparticles (genotype 1a, H77C) in Huh7 cells; average of duplicate; luciferase 2 days after infection.
Type: cell-based
With COC(=O)/C=C/c1ccccc1NC(=O)C(=O)NCC(C)(C)CNC(=O)c1ccc(Nc2nc(NC3(c4ccc(Cl)cc4)CC3)nc(OCC(F)(F)F)n2)cc1 [Compound 3138] the EC50 was 0.46 nM. NC(=O)C(=O)NCC1(CNC(=O)c2ccc(Nc3nc(NC4(c5ccc(Cl)cc5)CC4)nc(OCC(F)(F)F)n3)cc2)CC1 [Compound 3175] gave an EC50 of 0.11 nM. In the case of COc1ncccc1NC(=O)C(=O)NCC(C)(C)CNC(=O)c1ccc(Nc2nc(NC3(c4ccc(Cl)cc4)CC3)nc(OCC(F)(F)F)n2)cc1 [Compound 3366], the EC50 is reported as 0.14 nM.

Same assay, conditions: Hepatitis C virus, Huh-7, 48 h, HCV pseudoparticles, Huh7 cells, luciferase 2 days after infection; average of duplicates
CC(C)(CNC(=O)C(=O)Nc1nc2c(F)cccc2s1)CNC(=O)c1ccc(Nc2nc(NC3(c4ccc(Cl)cc4)CC3)nc(OCC(F)(F)F)n2)cc1 [Compound 3824] was tested, and the EC50 was 0.077 nM. O=C(NC[C@H](NC(=O)c1ccc(Nc2nc(NC3(c4ccc(Cl)cc4)CC3)nc(OCC(F)(F)F)n2)cc1)C(=O)O)C(=O)Nc1cccc(-c2ccccc2)c1 [Compound 3751] showed an EC50 of 0.14 nM. Cc1ccc(NC(=O)C(=O)NCC(C)(C)CNC(=O)c2ccc(Nc3nc(NC4(c5ccc(Cl)cc5)CC4)nc(OCC(F)(F)F)n3)cc2F)c(Cl)c1 [Compound 3664] was tested, and the EC50 was 0.038 nM.

Same assay, conditions: Hepatitis C virus, Huh-7, 48 h, read-out: Activity (EC50 class), HCV pseudoparticle infection of Huh7 cells, luciferase 2 days after infection; EC50 expressed as class A/B
COC(=O)[C@H](CNC(=O)C(=O)NCCc1cccc(OC)c1)NC(=O)c1ccc(Nc2nc(NC3(c4ccc(Cl)cc4)CC3)nc(OCC(F)(F)F)n2)cc1 [Compound 1286] showed an EC50 of 0.01 to 10 nM. With COC(=O)[C@H](CCNC(=O)C(=O)NCC(C)(C)C)NC(=O)c1ccc(Nc2nc(NC3(c4ccc(Cl)cc4)CC3)nc(OCC(F)(F)F)n2)cc1 [Compound 1195] the EC50 was 0.01 to 10 nM. With COc1ncccc1NC(=O)C(=O)NCC[C@H](NC(=O)c1ccc(Nc2nc(NC3(c4ccc(Cl)cc4)CC3)nc(OCC(F)(F)F)n2)cc1)C(=O)O [Compound 1261] the EC50 was 0.01 to 10 nM. Compound COC(=O)[C@H](CCNC(=O)C(=O)Nc1ccc(F)cc1)NC(=O)c1ccc(Nc2nc(NC3(c4ccc(Cl)cc4)CC3)nc(OCC(F)(F)F)n2)cc1 [Compound 1230] has an EC50 of 0.01 to 10 nM. O=C(NCC[C@H](NC(=O)c1ccc(Nc2nc(NC3(c4ccc(Cl)cc4)CC3)nc(OCC(F)(F)F)n2)cc1)C(=O)O)C(=O)NC1C[C@H]2CC[C@@H]1C2 (stereo partly shown) [Compound 1120] showed an EC50 of 0.01 to 10 nM. O=C(NCCc1cccnc1)C(=O)NCC[C@H](NC(=O)c1ccc(Nc2nc(NC3(c4ccc(Cl)cc4)CC3)nc(OCC(F)(F)F)n2)cc1)C(=O)O [Compound 1337] showed an EC50 of 0.01 to 10 nM. Work on COC(=O)[C@H](CCNC(=O)C(=O)Nc1cc[nH]n1)NC(=O)c1ccc(Nc2nc(NC3(c4ccc(Cl)cc4)CC3)nc(OCC(F)(F)F)n2)cc1 [Compound 1223] yielded an EC50 of 0.01 to 10 nM. In the case of O=C(NCC[C@H](NC(=O)c1ccc(Nc2nc(NC3(c4ccc(Cl)cc4)CC3)nc(OCC(F)(F)F)n2)cc1)C(=O)O)C(=O)NCC1(COc2ccccc2)CC1 [Compound 1431], the EC50 is reported as 0.01 to 10 nM. In the case of CCC1(CC)CC1CNC(=O)C(=O)NCC[C@H](NC(=O)c1ccc(Nc2nc(NC3(c4ccc(Cl)cc4)CC3)nc(OCC(F)(F)F)n2)cc1)C(=O)O (stereo partly shown) [Compound 1209], the EC50 is reported as 0.01 to 10 nM. COC(=O)[C@H](CCNC(=O)C(=O)NC1CCCCC1O)NC(=O)c1ccc(Nc2nc(NC3(c4ccc(Cl)cc4)CC3)nc(OCC(F)(F)F)n2)cc1 (stereo partly shown) [Compound 1098] gave an EC50 of 0.01 to 10 nM. For O=C(NCC[C@H](NC(=O)c1ccc(Nc2nc(NC3(c4ccc(Cl)cc4)CC3)nc(OCC(F)(F)F)n2)cc1)C(=O)O)C(=O)Nc1ccc(F)cc1 [Compound 1272], the EC50 was 0.01 to 10 nM. COC(=O)[C@H](CNC(=O)C(=O)Nc1ccncc1)NC(=O)c1ccc(Nc2nc(NC3(c4ccc(Cl)cc4)CC3)nc(OCC(F)(F)F)n2)cc1 [Compound 1258] was tested, and the EC50 was 0.01 to 10 nM.

Same assay, conditions: Hepatitis C virus, Huh-7, 48 h, read-out: Activity (EC50 class), HCV pseudoparticles, Huh7 cells, luciferase 2 days after infection; average of duplicates
With CC(C)(CNC(=O)C(=O)Nc1nc2c(F)cccc2s1)CNC(=O)c1ccc(Nc2nc(NC3(c4ccc(Cl)cc4)CC3)nc(OCC(F)(F)F)n2)cc1 [Compound 3824] the EC50 was 0.01 to 10 nM. Work on Cc1ccc(NC(=O)C(=O)NCC[C@H](NC(=O)c2ccc(Nc3nc(NC4(c5ccc(Cl)cc5)CC4)nc(OCC(F)(F)F)n3)cc2)C(=O)O)cn1 [Compound 3636] yielded an EC50 of 0.01 to 10 nM. Work on O=C(NC[C@H](NC(=O)c1ccc(Nc2nc(NC3(c4ccc(Cl)cc4)CC3)nc(OCC(F)(F)F)n2)cc1)C(=O)O)C(=O)Nc1cccc(-c2ccccc2)c1 [Compound 3751] yielded an EC50 of 0.01 to 10 nM. CC(C)(CNC(=O)C(=O)Nc1nc2ccc(S(N)(=O)=O)cc2s1)CNC(=O)c1ccc(Nc2nc(NC3(c4ccc(Cl)cc4)CC3)nc(OCC(F)(F)F)n2)cc1 [Compound 3825] showed an EC50 of 0.01 to 10 nM. Nc1ccc(NC(=O)C(=O)NCC[C@H](NC(=O)c2ccc(Nc3nc(NC4(c5ccc(Cl)cc5)CC4)nc(OCC(F)(F)F)n3)cc2)C(=O)O)cn1 [Compound 3630] was tested, and the EC50 was 0.01 to 10 nM. Work on Cc1ccc(NC(=O)C(=O)NCC(C)(C)CNC(=O)c2ccc(Nc3nc(NC4(c5ccc(Cl)cc5)CC4)nc(OCC(F)(F)F)n3)cc2F)c(Cl)c1 [Compound 3664] yielded an EC50 of 0.01 to 10 nM. O=C(NCC[C@H](NC(=O)c1ccc(Nc2nc(NC3(c4ccc(Cl)cc4)CC3)nc(OCC(F)(F)F)n2)cc1)C(=O)O)C(=O)Nc1cccc(Oc2ccccc2)c1 [Compound 3620] gave an EC50 of 0.01 to 10 nM. For COC(=O)[C@H](CNC(=O)C(=O)Nc1ccc(Oc2ccc(C(C)(C)C)cc2)nc1)NC(=O)c1ccc(Nc2nc(NC3(c4ccc(Cl)cc4)CC3)nc(OCC(F)(F)F)n2)cc1 [Compound 3698], the EC50 was 0.01 to 10 nM.

Same assay, conditions: Hepatitis C virus, Huh-7, read-out: Activity (EC50 class), HCV pseudoparticles (genotype 1a, H77C) in Huh7 cells; EC50 expressed as class A/B
In the case of CC(C)(CNC(=O)C(N)=O)CNC(=O)c1ccc(Nc2nc(NC3(c4ccc(Cl)cc4)CC3)nc(OCC(F)(F)F)n2)cc1-c1ccccc1 [Compound 3511], the EC50 is reported as 0.01 to 10 nM. O=C(NCCNC(=O)c1ccc(Nc2nc(NC3(c4ccc(Cl)cc4)CC3)nc(OCC(F)(F)F)n2)cc1)C(=O)NCc1ccc(F)cc1 [Compound 3370] gave an EC50 of 0.01 to 10 nM. Compound COC(=O)/C=C/c1ccccc1NC(=O)C(=O)NCC(C)(C)CNC(=O)c1ccc(Nc2nc(NC3(c4ccc(Cl)cc4)CC3)nc(OCC(F)(F)F)n2)cc1 [Compound 3138] has an EC50 of 0.01 to 10 nM. Compound CC(C)(CNC(=O)C(=O)Nc1ccc(Cl)c(F)c1)CNC(=O)c1ccc(Nc2nc(NC3(c4ccc(Cl)cc4)CC3)nc(OCC(F)(F)F)n2)cc1F [Compound 3513] has an EC50 of 0.01 to 10 nM. Compound Cc1cc(C)n(-c2ccc(NC(=O)C(=O)NCC[C@H](NC(=O)c3ccc(Nc4nc(NC5(c6ccc(Cl)cc6)CC5)nc(OCC(F)(F)F)n4)cc3)C(=O)O)cc2)n1 [Compound 3238] has an EC50 of 0.01 to 10 nM. With COC(=O)[C@@H](CCNC(=O)C(=O)Nc1cccc(Oc2ccccc2)c1)NC(=O)c1ccc(Nc2nc(NC3(c4ccc(Cl)cc4)CC3)nc(OCC(F)(F)F)n2)cc1 [Compound 3578] the EC50 was 0.01 to 10 nM. NC(=O)C(=O)NCC1(CNC(=O)c2ccc(Nc3nc(NC4(c5ccc(Cl)cc5)CC4)nc(OCC(F)(F)F)n3)cc2)CC1 [Compound 3175] showed an EC50 of 0.01 to 10 nM. For COC(=O)[C@@H](CCNC(=O)C(=O)Nc1cccc(-c2cnco2)c1)NC(=O)c1ccc(Nc2nc(NC3(c4ccc(Cl)cc4)CC3)nc(OCC(F)(F)F)n2)cc1 [Compound 3579], the EC50 was 0.01 to 10 nM. With O=C(Cc1ccc(F)cc1F)C(=O)NCC(O)CNC(=O)c1ccc(Nc2nc(NC3(c4ccc(Cl)cc4)CC3)nc(OCC(F)(F)F)n2)cc1 (stereo not shown) [Compound 3459] the EC50 was 0.01 to 10 nM. Compound O=C(NC[C@H](NC(=O)c1ccc(Nc2nc(NC3(c4ccc(Cl)cc4)CC3)nc(OCC(F)(F)F)n2)cc1)C(=O)O)C(=O)Nc1ccc(-n2cnnn2)cc1 [Compound 3276] has an EC50 of 0.01 to 10 nM. CC(C)(CNC(=O)C(=O)Nc1cccc2ccccc12)CNC(=O)c1ccc(Nc2nc(NC3(c4ccc(Cl)cc4)CC3)nc(OCC(F)(F)F)n2)cc1 [Compound 3030] gave an EC50 of 0.01 to 10 nM. Work on COC(=O)[C@H](CNC(=O)C(=O)Nc1ccc(CN2CCCCC2)cc1)NC(=O)c1ccc(Nc2nc(NC3(c4ccc(Cl)cc4)CC3)nc(OCC(F)(F)F)n2)cc1 [Compound 3196] yielded an EC50 of 0.01 to 10 nM. For COC(=O)[C@H](CCNC(=O)C(=O)Nc1ccc(Cn2cncn2)cc1)NC(=O)c1ccc(Nc2nc(NC3(c4ccc(Cl)cc4)CC3)nc(OCC(F)(F)F)n2)cc1 [Compound 3299], the EC50 was 0.01 to 10 nM. For COc1ncccc1NC(=O)C(=O)NCC(C)(C)CNC(=O)c1ccc(Nc2nc(NC3(c4ccc(Cl)cc4)CC3)nc(OCC(F)(F)F)n2)cc1 [Compound 3366], the EC50 was 0.01 to 10 nM. In the case of COC(=O)[C@H](CNC(=O)C(=O)Nc1ccc(Cn2cncn2)cc1)NC(=O)c1ccc(Nc2nc(NC3(c4ccc(Cl)cc4)CC3)nc(OCC(F)(F)F)n2)cc1 [Compound 3182], the EC50 is reported as 0.01 to 10 nM. With O=C(NCCCCNC(=O)c1ccc(Nc2nc(NC3(c4ccc(Cl)cc4)CC3)nc(OCC(F)(F)F)n2)cc1)C(=O)NC1CCCCC1 [Compound 3398] the EC50 was 0.01 to 10 nM. Cc1ccc(NC(=O)C(=O)NCC(C)(C)CNC(=O)c2ccc(Nc3nc(NC4(c5ccc(Cl)cc5)CC4)nc(OCC(F)(F)F)n3)cc2)c(Cl)c1 [Compound 3378] was tested, and the EC50 was 0.01 to 10 nM.
